Data reported in US20260124158A1, “COMPOSITIONS AND METHODS TO REDUCE BIOLOGICAL AGE OF AN ADULT ANIMAL” (Société des Produits Nestlé S.A., priority 2022, published 2026).

Experiments:
[1] = tested on: muscle gastrocnemius of old mice; experiment: Muscle biological age by DNA methylation, intervention muscle clock, in old mice; format: in vivo, mouse; conditions: 20 mg/kg/day for 12 weeks
From the text: (§1) All animal experiments comply with the International Guiding Principles for Biomedical Research Involving Animals developed by the Council for International Organizations of Medical Sciences and the following guidelines for animal welfare. 24 old mice aged 18 months and 12 young mice aged 6 months were kept in a temperature-and humidity-controlled environment with a 12:12-h light-dark cycle. Mice had access to nesting and enrichment materials and were provided with ad libitum access to water and food.
(§2) Old mice were split in two groups and received either 20 mg/kg body weight of thymol or vehicle by gavage daily for 12 weeks, whereas young mice received the vehicle only (n=12). Animals found dead or euthanized at the humane endpoint for pain or physical distress, have been excluded from the analysis. At the end of the treatment, mice were euthanized with isoflurane after 2-hours fasting. Muscle gastrocnemius has been dissected samples and snap frozen in liquid nitrogen and stored at −80° C.
(§3) DNA extraction was performed on 100 mg of muscle using QIAGEN DNeasy Blood and Tissue kit (Cat. No: 69506) and following manufacturer recommendations. DNA was quantified using the DropSense technology (from Unchained Labs). […]
(§4) To calculate biological age, raw data have been analysed using algorithms (clocks) developed by the Clock Foundation. […] Data were plotted and analysed using GraphPad Prism 9. […]

[2] = tested on: muscle gastrocnemius of old mice; experiment: Muscle biological age by DNA methylation, pan tissue clock, in old mice; format: in vivo, mouse
From the text: as §1, §2, §3, §4

Cc1ccc(C(C)C)c(O)c1 [thymol]
effects on biological age using the interventions muscle clock [1]: confirmed
reduction of muscle biological age measured with the pan tissue clock ([2]; 20 mg/kg/day by gavage daily for 12 weeks, vs old vehicle): 20.3%
effect on biological age in old mice ([2]; 20 mg/kg/day for 12 weeks): significantly reduced biological age in old mice
